Results reported in the Kinase Knowledgebase extract (Sharma et al. 2016).
pIC50: −log10 of the molar value.

Biological target: PIK3CA (human) (UniProt P42336)
Assay: Inhibition of PIK3CA Kinase Activity

Sequence of PIK3CA (human) (P42336 whole entry, looked up): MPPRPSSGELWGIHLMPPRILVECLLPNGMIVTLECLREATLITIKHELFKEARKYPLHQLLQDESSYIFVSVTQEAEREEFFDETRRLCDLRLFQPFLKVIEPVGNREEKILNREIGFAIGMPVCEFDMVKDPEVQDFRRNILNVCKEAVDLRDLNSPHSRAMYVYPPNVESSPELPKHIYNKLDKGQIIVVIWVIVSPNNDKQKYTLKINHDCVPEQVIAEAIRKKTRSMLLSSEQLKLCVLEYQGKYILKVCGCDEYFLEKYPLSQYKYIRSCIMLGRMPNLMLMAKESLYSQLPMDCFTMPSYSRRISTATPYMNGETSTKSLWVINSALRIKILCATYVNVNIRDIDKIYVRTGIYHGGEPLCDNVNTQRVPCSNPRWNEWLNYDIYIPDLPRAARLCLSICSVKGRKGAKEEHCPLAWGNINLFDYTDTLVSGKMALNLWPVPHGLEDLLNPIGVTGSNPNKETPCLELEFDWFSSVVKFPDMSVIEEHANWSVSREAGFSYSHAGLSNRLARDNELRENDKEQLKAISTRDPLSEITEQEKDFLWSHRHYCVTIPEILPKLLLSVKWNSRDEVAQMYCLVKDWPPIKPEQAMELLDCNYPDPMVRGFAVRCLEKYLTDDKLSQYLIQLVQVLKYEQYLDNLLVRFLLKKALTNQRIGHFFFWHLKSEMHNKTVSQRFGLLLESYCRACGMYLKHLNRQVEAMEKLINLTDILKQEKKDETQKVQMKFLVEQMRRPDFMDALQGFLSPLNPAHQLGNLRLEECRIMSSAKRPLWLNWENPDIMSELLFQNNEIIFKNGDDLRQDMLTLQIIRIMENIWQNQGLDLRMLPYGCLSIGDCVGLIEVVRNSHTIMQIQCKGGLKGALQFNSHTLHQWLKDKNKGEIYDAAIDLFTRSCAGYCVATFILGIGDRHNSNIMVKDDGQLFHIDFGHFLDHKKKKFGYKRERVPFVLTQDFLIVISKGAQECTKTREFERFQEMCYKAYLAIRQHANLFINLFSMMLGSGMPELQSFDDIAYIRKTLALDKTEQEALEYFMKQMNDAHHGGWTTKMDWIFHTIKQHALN

| pIC50 | SMILES |
| --- | --- |
| 7.30 to 8.00 | COc1ccc(-c2ccc3c(c2)CN(c2nc(CN(C)C)nc(C)c2C(C)C)CCO3)cc1NS(C)(=O)=O |
| ≥ 8.00 | COc1ccc2c(N3CCOc4ccc(-c5ccc6[nH]cnc6c5)cc4C3)nc(CN(C)C)nc2c1 |
| 6.60 to 7.30 | CC1(C)CCc2ncnc(N3CCOc4ccc(-c5cnc(N)c(S(=O)(=O)N6C[C@H]7C[C@@H]6CN7)c5)cc4C3)c2C1 |
| 7.30 to 8.00 | Cc1nc2ncc(-c3ccc4c(c3)CN(c3nc(CN5CCOCC5)nc5c3CC(C)(C)CC5)CCO4)cc2[nH]1 |
| 7.30 to 8.00 | Cc1nc2ccc(-c3ccc4c(c3)CN(c3ncnc(C)c3C(C)c3ccccc3)CCO4)cc2[nH]1 (stereo unspecified) |
| 6.00 to 6.60 | Cc1nc(CN(C)C)nc(N2CCOc3ccc(-c4ccc5scnc5c4)cc3C2)c1Cc1ccc(F)cc1 |
| 6.60 to 7.30 | CCNc1nc2ccc(-c3ccc4c(c3)CN(c3cc(Nc5ccccc5)ncn3)CCO4)cc2[nH]1 |
| ≥ 8.00 | COc1ccc2c(N3CCOc4ccc(-c5cnc(N)c(S(=O)(=O)N6CC[C@H](N)C6)c5)cc4C3)ncnc2c1 |
| 6.00 to 6.60 | CCNC(=O)c1ccc(-c2ccc3c(c2)CN(c2ccnc4ccccc24)CCO3)cc1 |
| 7.30 to 8.00 | Cc1nc2c(c(N3CCOc4ccc(-c5cnc6nc(C)[nH]c6c5)cc4C3)n1)CC(C)CC2 (stereo unspecified) |
| 6.00 to 6.60 | COc1c(OCCN(C)C)ccc2c(N3CCOc4ccc(-c5ccc6nc(C)[nH]c6c5)cc4C3)ncnc12 |
| 7.30 to 8.00 | Cc1nc2cc(-c3ccc4c(c3)CN(c3nc(CN(C)C)nc(C)c3C)CCO4)cnc2[nH]1 |
| ≥ 8.00 | CC1(C)CCc2ncnc(N3CCOc4ccc(-c5cnc(N)c(S(=O)(=O)NCCCO)c5)cc4C3)c2C1 |
| 6.00 to 6.60 | CCc1c(C(C)C)ncnc1N1CCOc2ccc(-c3ccc4nc(C)[nH]c4c3)cc2C1 |
| 6.60 to 7.30 | CNS(=O)(=O)c1cc(-c2ccc3c(c2)CN(c2ncnc(C)c2Cc2ccc(F)cc2)CCO3)cnc1N |
| 7.30 to 8.00 | CC(=O)OCc1nc2c(c(N3CCOc4ccc(-c5cnc6nc(C)[nH]c6c5)cc4C3)n1)CC(C)(C)CC2 |
| 7.30 to 8.00 | Cc1nc2ccc(-c3ccc4c(c3)CN(c3nc(CNC5CC5)nc5c3CC(C)(C)CC5)CCO4)cc2[nH]1 |
| ≥ 8.00 | Nc1nc2ncc(-c3ccc4c(c3)CN(c3ncnc5ccc(Cl)cc35)CCO4)cc2[nH]1 |
| 6.60 to 7.30 | Cc1nc2ccc(-c3ccc4c(c3)CN(c3ncnc(C)c3CC3CC3)CCO4)cc2[nH]1 |
| 6.00 to 6.60 | COc1ccc2c(N3CCOc4ccc(-c5ccc(NC(C)=O)cc5)cc4C3)nc(C)nc2c1 |
| 7.30 to 8.00 | Cc1nc2ccc(-c3ccc4c(c3)CN(c3ncnc(C)c3Cc3ccc(F)c(F)c3)CCO4)cc2[nH]1 |
| ≥ 8.00 | CNCc1nc2c(c(N3CCOc4ccc(-c5cnc6nc(C)[nH]c6c5)cc4C3)n1)CC(C)(C)CC2 |

| pIC50 | SMILES |
| --- | --- |
| 6.60 to 7.30 | CC1(C)CCc2ncnc(N3CCOc4ccc(-c5cnc(N)c(S(=O)(=O)NC[C@@H]6CCCNC6)c5)cc4C3)c2C1 |
| 7.30 to 8.00 | Cc1nc2ccc(-c3ccc4c(c3)CN(c3ncnc5cc(F)ccc35)CCO4)cc2[nH]1 |
| 7.30 to 8.00 | C[C@H](CO)CS(=O)(=O)c1cc(-c2ccc3c(c2)CN(c2ncnc4c2CC(C)(C)CC4)CCO3)cnc1N |
| 7.30 to 8.00 | COc1cc2c(N3CCOc4ccc(-c5cnc6nc(N)[nH]c6c5)cc4C3)ncnc2cc1Br |
| 7.30 to 8.00 | CC(=O)Nc1nc2cc(-c3ccc4c(c3)CN(c3nc(CN(C)C)nc5c3CC(C)(C)CC5)CCO4)cnc2s1 |
| 6.60 to 7.30 | CCc1ncnc(N2CCOc3ccc(-c4cnc5nc(C)[nH]c5c4)cc3C2)c1C |
| ≥ 8.00 | CC1(C)CCc2ncnc(N3CCOc4ccc(-c5cnc(N)c(S(=O)(=O)NCC(O)CN)c5)cc4C3)c2C1 (stereo unspecified) |
| 6.60 to 7.30 | Nc1nc2ccc(-c3ccc4c(c3)CN(c3nc(-c5ccccc5)nc5ccccc35)CCO4)cc2[nH]1 |
| ≥ 8.00 | CCNc1nc2ccc(-c3ccc4c(c3)CN(c3nc(C)nc5cc(OC)ccc35)CCO4)cc2[nH]1 |
| 6.00 to 6.60 | COCc1nc2ccc(-c3ccc4c(c3)CN(c3ccnc5ccccc35)CCO4)cc2[nH]1 |
| 6.60 to 7.30 | Cc1nc2ncc(-c3ccc4c(c3)CN(c3ncnc5c3C[C@H](C)[C@@H](C)C5)CCO4)cc2[nH]1 |
| ≥ 8.00 | CC1(C)CCc2ncnc(N3CCOc4ccc(-c5cnc6nc(N)[nH]c6c5)cc4C3)c2C1 |
| ≥ 8.00 | CC1CCc2c(ncnc2N2CCOc3ccc(-c4cnc5nc(N)[nH]c5c4)cc3C2)C1 (stereo unspecified) |
| 6.00 to 6.60 | CCN1CCc2c(ncnc2N2CCOc3ccc(-c4ccc5nc(C)[nH]c5c4)cc3C2)C1 |
| 7.30 to 8.00 | Cc1nc2ncc(-c3ccc4c(c3)CN(c3ncnc(NC(C)C)c3C)CCO4)cc2[nH]1 |
| 6.60 to 7.30 | CC1=Cc2ncnc(N3CCOc4ccc(-c5cnc(N)c(S(=O)(=O)NCC6CCN(C)CC6)c5)cc4C3)c2CC1(C)C |
| 6.00 to 6.60 | Cc1nc(N)sc1-c1ccc2c(c1)CN(c1ncnc(C)c1Cc1ccc(F)cc1)CCO2 |
| 6.60 to 7.30 | Nc1ccc(-c2ccc3c(c2)CN(c2ccnc4ccccc24)CCO3)cn1 |
| 6.60 to 7.30 | Cc1nc2c(c(N3CCOc4ccc(-c5cnc(N)c(S(=O)(=O)N[C@@H]6CCN(C)C6)c5)cc4C3)n1)CC(C)(C)CC2 |
| 6.60 to 7.30 | CC1(C)CCc2ncnc(N3CCOc4ccc(-c5ccc6nc(N)[nH]c6c5)cc4C3)c2C1 |
| 6.60 to 7.30 | Cc1nc2cc(-c3ccc4c(c3)CN(c3nc(C(C)N5CCCC5)nc5c3CC(C)(C)CC5)CCO4)cnc2[nH]1 (stereo unspecified) |
| 6.60 to 7.30 | Cc1nc2ncc(-c3ccc4c(c3)CN(c3ncnc(N5CCC5)c3C)CCO4)cc2[nH]1 |

| pIC50 | SMILES |
| --- | --- |
| ≥ 8.00 | CCNc1nc2ccc(-c3ccc4c(c3)CN(c3ccnc5c(F)cccc35)CCO4)cc2[nH]1 |
| 6.60 to 7.30 | Cc1nc2cc(-c3ccc4c(c3)CN(c3nc(CN(C)C)nc(C)c3-c3ccccc3)CCO4)ccc2[nH]1 |
| 6.60 to 7.30 | C=Cc1nc2c(c(N3CCOc4ccc(-c5cnc6[nH]c(C)nc6c5)cc4C3)n1)CC(C)(C)CC2 |
| 7.30 to 8.00 | CC1=Cc2ncnc(N3CCOc4ccc(-c5cnc(N)c(S(=O)(=O)N6CC[C@@H](N)C6)c5)cc4C3)c2CC1(C)C |
| 7.30 to 8.00 | CCC1CCc2ncnc(N3CCOc4ccc(-c5ccc6nc(C)[nH]c6c5)cc4C3)c2C1 (stereo unspecified) |
| 6.60 to 7.30 | CNC(=O)c1ccc(-c2ccc3c(c2)CN(c2nc(CN(C)C)nc4c2CC(C)(C)CC4)CCO3)cc1 |
| 6.60 to 7.30 | Cc1nc2c(C)cc(-c3ccc4c(c3)CN(c3ncnc5cccnc35)CCO4)cc2[nH]1 |
| 6.60 to 7.30 | Cc1nc2ccc(-c3ccc4c(c3)CN(c3ncnc5cc(S(C)(=O)=O)ccc35)CCO4)cc2[nH]1 |
| 6.60 to 7.30 | Cc1nc2ccc(-c3ccc4c(c3)CN(c3ncnc(C)c3C)CCO4)cc2[nH]1 |
| 6.60 to 7.30 | CC(O)c1nc2cc(-c3ccc4c(c3)CN(c3ncnc5c3CC(C)(C)CC5)CCO4)cnc2[nH]1 (stereo unspecified) |
| 6.00 to 6.60 | Cc1ncc(-c2ccc3c(c2)CN(c2ncnc4c2CCC(C)(C)C4)CCO3)s1 |
| ≥ 8.00 | Cc1ccc2ncnc(N3CCOc4ccc(-c5cnc6nc(N)[nH]c6c5)cc4C3)c2c1 |
| 6.60 to 7.30 | Cc1nc2ccc(-c3ccc4c(c3)CN(c3ncnc5ccc(O)cc35)CCO4)cc2[nH]1 |
| ≥ 8.00 | Cc1nc2cc(-c3ccc4c(c3)CN(c3nc(CN5CCCC5)nc5c3CC(C)(C)CC5)CCO4)ccc2[nH]1 |
| 7.30 to 8.00 | CC1=Cc2ncnc(N3CCOc4ccc(-c5cnc(N)c(S(=O)(=O)NCC(C)(C)N)c5)cc4C3)c2CC1(C)C |
| 7.30 to 8.00 | COc1cc2c(N3CCOc4ccc(-c5ccc6nc(C)[nH]c6c5)cc4C3)ncnc2cc1O |
| 6.60 to 7.30 | CC1(C)CCc2ncnc(N3CCOc4ccc(-c5cnc(N)c(S(=O)(=O)NC[C@H]6C[C@H]7CNC[C@H]7C6)c5)cc4C3)c2C1 |
| ≥ 8.00 | CC1(C)CCc2nc(CO)nc(N3CCOc4ccc(-c5cnc6sc(N)nc6c5)cc4C3)c2C1 |
| 7.30 to 8.00 | Cc1nc2ccc(-c3ccc4c(c3)CN(c3ncnc5ccc(OCC#N)cc35)CCO4)cc2[nH]1 |
| 7.30 to 8.00 | CC[C@H]1CCCc2c(ncnc2N2CCOc3ccc(-c4cnc5nc(C)[nH]c5c4)cc3C2)C1 |
| ≥ 8.00 | CCNc1nc2ccc(-c3ccc4c(c3)CN(c3nc(C)nc5cc(F)ccc35)CCO4)cc2[nH]1 |
| 7.30 to 8.00 | Cc1nc2ncc(-c3ccc4c(c3)CN(c3nc(CNC(C)(C)C)nc5c3CC(C)(C)CC5)CCO4)cc2[nH]1 |

| pIC50 | SMILES |
| --- | --- |
| 7.30 to 8.00 | Cc1nc2c(c(N3CCOc4ccc(-c5cnc6nc(C)[nH]c6c5)cc4C3)n1)CC(C)(C)CC2 |
| 6.00 to 6.60 | Cc1nc2ccc(-c3ccc4c(c3)CN(c3ncnc5ccc(S(C)(=O)=O)cc35)CCO4)cc2[nH]1 |
| 6.60 to 7.30 | CCN(C)S(=O)(=O)c1cc(-c2ccc3c(c2)CN(c2ncnc4c2CC(C)(C)CC4)CCO3)cnc1N |
| 7.30 to 8.00 | COc1c(O)ccc2c(N3CCOc4ccc(-c5ccc6nc(C)[nH]c6c5)cc4C3)ncnc12 |
| ≥ 8.00 | COc1ccc2c(N3CCOc4ccc(-c5cnc6nc[nH]c6c5)cc4C3)nc(C)nc2c1 |
| 7.30 to 8.00 | CC1(C)CCc2ncnc(N3CCOc4ccc(-c5cnc(N)c(S(=O)(=O)N[C@@H]6CCNC6)c5)cc4C3)c2C1 |
| 6.60 to 7.30 | Cc1cccc(Cl)c1S(=O)(=O)Nc1cc(-c2ccc3c(c2)CN(c2ncnc4c2CC(C)(C)CC4)CCO3)cnc1Cl |
| 6.00 to 6.60 | COc1c(OCc2ccc3ccccc3n2)ccc2c(N3CCOc4ccc(-c5ccc6nc(C)[nH]c6c5)cc4C3)ncnc12 |
| 6.60 to 7.30 | Cc1nc(Nc2ccccc2)c(C)c(N2CCOc3ccc(-c4ccc5nc[nH]c5c4)cc3C2)n1 |
| 7.30 to 8.00 | COc1ccc(-c2ccc3c(c2)CN(c2nc(CN(C)C)nc4c2CC(C)(C)CC4)CCO3)cc1OC |
| ≥ 8.00 | Cc1nc2ncc(-c3ccc4c(c3)CN(c3nc(CN5CC[C@@H](F)C5)nc5c3CC(C)(C)CC5)CCO4)cc2[nH]1 |
| 6.00 to 6.60 | Cc1nc2ccc(-c3ccc4c(c3)CN(c3nc(-c5ccccn5)nc5c3CC(C)(C)CC5)CCO4)cc2[nH]1 |
| ≥ 8.00 | CC[C@H]1CCc2c(nc(C)nc2N2CCOc3ccc(-c4cnc5nc(NC(=O)OC)[nH]c5c4)cc3C2)C1 |
| 7.30 to 8.00 | Cc1nc(C)c(CC2CC2)c(N2CCOc3ccc(-c4cnc5nc(C)[nH]c5c4)cc3C2)n1 |
| 6.60 to 7.30 | CC1(C)CCc2ncnc(N3CCOc4ccc(-c5cnc(N)c(S(=O)(=O)N6CCCC6)c5)cc4C3)c2C1 |
| 6.60 to 7.30 | Cc1nc2ncc(-c3ccc4c(c3)CN(c3nc(CN(C)C5CC5)nc5c3CC(C)(C)CC5)CCO4)cc2[nH]1 |
| ≥ 8.00 | CN(C)Cc1nc2c(c(N3CCOc4ccc(-c5ccc(-c6ncc[nH]6)cc5)cc4C3)n1)CC(C)(C)CC2 |
| 6.00 to 6.60 | Cc1nc2ncc(-c3ccc4c(c3)CN(c3ncnc5c3CC(F)(F)CC5)CCO4)cc2[nH]1 |
| 6.60 to 7.30 | COc1cc2c(N3CCOc4ccc(-c5ccc6nc(C)[nH]c6c5)cc4C3)ncnc2c(OC)c1OC |
| 7.30 to 8.00 | COc1c(OCC2CC2)ccc2c(N3CCOc4ccc(-c5ccc6nc(C)[nH]c6c5)cc4C3)ncnc12 |
